Calls of active or inactive are those of the source. No cut-off for these calls is given here.

The results in this text go back to ChEMBL document CHEMBL3045905, “Synthesis and evaluation of curcumin analogues as cytotoxic agents” (Med Chem Res, 2010).

Series [1] is described as follows: Cytotoxicity against Mus musculus (mouse) EAC assessed as cell viability by trypan blue exclusion assay. The format is functional, Ehrlich.
Series [2] deals with Mus musculus. Nature of the series: Toxicity in Mus musculus Swiss Albino (mouse) xenografted with Mus musculus (mouse) EAC assessed as increase in body weight at 50 to 250 mg/kg/day, ip measured on day 14. In kind it is organism-based. Also noted: route intraperitoneal. The note with it: in vivo.
Series [3] deals with Ehrlich. The experiment in a line: Antitumor activity against Mus musculus (mouse) EAC xenografted in Mus musculus (mouse) assessed as normalization of WBC level at 50 to 250 mg/kg/day, ip measured on day 14 relative to untreated control. The format is functional, organism-based.
Series [4] is described as follows: Antitumor activity against Mus musculus (mouse) EAC xenografted in Mus musculus (mouse) assessed as decrease in tumor number at 50 to 250 mg/kg/day, ip measured on day 14 by Giemsa staining (reference value: 220 million/ml). In kind it is functional, Ehrlich. The note with it: route intraperitoneal.
Series [5] in a line: Antitumor activity against Mus musculus (mouse) EAC xenografted in Mus musculus (mouse) assessed as normalization of hemoglobin level at 50 to 250 mg/kg/day, ip measured on day 14 (reference value: 8.7 g/dl). Conditions: route intraperitoneal. In kind it is functional, Ehrlich.
The nature of series [6]: Antitumor activity against Mus musculus (mouse) EAC xenografted in Mus musculus (mouse) assessed as normalization of hematocrit at 50 to 250 mg/kg/day, ip measured on day 14 (reference value: 35.5%). In kind it is functional, Ehrlich. The note with it: route intraperitoneal.
Series [7] is described as follows: Antitumor activity against Mus musculus (mouse) EAC xenografted in Mus musculus (mouse) assessed as increase in mean survival time at 50 to 250 mg/kg/day, ip after 9 days (reference value: 9.1 days). In kind it is functional, Ehrlich. Conditions: route intraperitoneal.
Series [8] in a line: Antitumor activity against Mus musculus (mouse) EAC xenografted in Mus musculus (mouse) assessed as increase in mean survival time at 20 mg/kg/day, ip after 9 days (reference value: 9.1 days). The format is functional, Ehrlich. The note with it: route intraperitoneal.
For series [9], the system named is Ehrlich. Nature of the series: Antitumor activity against Mus musculus (mouse) EAC xenografted in Mus musculus (mouse) assessed as normalization of WBC level at 20 mg/kg/day, ip measured on day 14 relative to untreated control. The format is functional, organism-based.
Series [10] in a line: Antitumor activity against Mus musculus (mouse) EAC xenografted in Mus musculus (mouse) assessed as decrease in tumor number at 20 mg/kg/day, ip measured on day 14 by Giemsa staining (reference value: 220 million/ml). In kind it is functional, Ehrlich. The note with it: route intraperitoneal.
Series [11] deals with Mus musculus. Nature of the series: Toxicity in Mus musculus Swiss Albino (mouse) xenografted with Mus musculus (mouse) EAC assessed as increase in body weight at 20 mg/kg/day, ip measured on day 14. The format is organism-based. Also noted: route intraperitoneal. Conditions: in vivo.
The nature of series [12]: Antitumor activity against Mus musculus (mouse) EAC xenografted in Mus musculus (mouse) assessed as normalization of hemoglobin level at 20 mg/kg/day, ip measured on day 14 (reference value: 8.7 g/dl). Conditions: route intraperitoneal. In kind it is functional, Ehrlich.
Series [13] is described as follows: Antitumor activity against Mus musculus (mouse) EAC xenografted in Mus musculus (mouse) assessed as normalization of hematocrit at 20 mg/kg/day, ip measured on day 14 (reference value: 35.5%). The note with it: route intraperitoneal. The format is functional, Ehrlich.

Turning to `COc1cc(/C=C/c2cc(/C=C/c3ccc(O)c(OC)c3)n(NN)n2)ccc1O`, the ED25 in [1] came out at 22.2 mM.
Turning to `COc1ccc(NN=C(C(=O)/C=C/c2ccc(O)c(OC)c2)C(=O)/C=C/c2ccc(O)c(OC)c2)cc1`, in series [1], the ED25 is given as 3.4 mM.
In the case of `COc1cc(/C=C/C(=O)C(=NNc2ccc(C)cc2)C(=O)/C=C/c2ccc(O)c(OC)c2)ccc1O`, the ED10 in [1] was found to be 2.4 mM.
Take `COc1cc(/C=C/C(=O)C(=NNc2ccc(Cl)cc2)C(=O)/C=C/c2ccc(O)c(OC)c2)ccc1O`: the ED25 in [1] is 3.2 mM.
In the case of `COc1cc(/C=C/C(=O)C(=NNc2ccc([N+](=O)[O-])cc2)C(=O)/C=C/c2ccc(O)c(OC)c2)ccc1O`, in [1], the ED10 is recorded as 2.5 mM and the ED25 stood at 2.8 mM.
Regarding `COc1cc(/C=C/C(=O)/C(=N\Nc2ccc([N+](=O)[O-])cc2)C(=O)C(Br)C(Br)c2ccc(O)c(OC)c2)ccc1O` (stereo not drawn), in series [1], the ED25 came out at 3.2 mM.
Same read-out and setting: to `COc1cc(C2CC(C(=NNc3ccc([N+](=O)[O-])cc3)C3=NC(=S)NC(c4ccc(O)c(OC)c4)C3)=NC(=S)N2)ccc1O` (stereo not drawn) belongs 4.8 mM.
Consider `COc1cc(/C=C/C(=O)/C(=N\Nc2ccc([N+](=O)[O-])cc2)C2=NC(=S)NC(c3ccc(O)c(OC)c3)C2)ccc1O` (stereo not drawn), for which, in series [1], the ED10 is reported as 2.9 mM.
`COc1cc(C2C=C(C(=NNc3ccc([N+](=O)[O-])cc3)C3=CC(c4ccc(O)c(OC)c4)ON3)NO2)ccc1O` (stereo not drawn): the ED25 in [1] is 5.3 mM.
The same measure, in the same setting: for `COc1cc(C2CC(C(=NNc3ccc([N+](=O)[O-])cc3)C3=NNC(c4ccc(O)c(OC)c4)C3)=NN2)ccc1O` (stereo not drawn) the value was 38.9 mM.
As for `COc1cc(/C=C/c2cc(/C=C/c3ccc(O)c(OC)c3)n(N=O)n2)ccc1O`, the ED25 in series [1] is 6.7 mM.
Still for that read-out and setting: for `COc1cc(/C=C/c2cc(/C=C/c3cc(/N=N/c4ccc(Cl)cc4)c(O)c(OC)c3)n(CO)n2)cc(/N=N/c2ccc(Cl)cc2)c1O` the value was 3.6 mM.
On to `COc1cc(/C=C/c2cc(/C=C/c3ccc(O)c(OC)c3)[nH]n2)ccc1O` [CURCUMIN PYRAZOLE], for which the Activity entry is “Toxic” in [2], 169.6 ×10⁶ /ml in [4], 9.4 g/dL in series [5] and 41% in series [6]. Besides, the outcome in [3] was Active. Moreover, in series [7], the MST came to 14.6 days. Besides, in series [1], the ED25 turned out to be 66.7 mM.
For `COc1cc(/C=C/C(=O)CC(=O)/C=C/c2ccc(O)c(OC)c2)ccc1O` [CURCUMIN], in [1], the ED10 was 3.4 mM and the ED25 is given as 4.8 mM.
For the compound `O=c1[nH]cc(F)c(=O)[nH]1` [FLUOROURACIL], in series [8], the MST was found to be 16.7 days. For the same compound, the outcome in series [9] was Active. The Activity in series [10] was 123 ×10⁶ /ml; in series [11] it was “Toxic”; in [12] it was 10 g/dL; in series [13] it was 42.3%.
